Reference: ChEMBL document CHEMBL1139835, “Novel quinolizidinyl derivatives as antiarrhythmic agents” (J Med Chem, 2007)
Values belong to the molecule of their own block, whether it stands above or below them. Active and inactive are the calls of the source. The calls are words filed in the database; no cut-off is given here.

Key:
Aorta [1] = assay: Inhibition of calcium-induced contraction of potassium ion depolarized guinea pig aortic strips at 50 uM; assay type: functional; details: Cavia porcellus
tissue or blood = details: Cavia porcellus, Cardiac atrium
[2] = Negative chronotropic activity assessed as decrease in atrial rate in isolated guinea pig right atrium at 50 uM relative to control; assay type: functional, Cavia porcellus, Cardiac atrium; design: scale not given: the % may be the effect or the level left
[3] = Negative inotropic activity assessed as decrease in developed tension in isolated guinea pig left atrium; assay type: functional, tissue-based; details: Cavia porcellus, Cardiac atrium
[4] = Negative inotropic activity assessed as decrease in developed tension in isolated guinea pig left atrium at 1 uM relative to control; assay type: functional, Cavia porcellus, Cardiac atrium; design: scale not given: the % may be the effect or the level left
[5] = Activity against alternating current-induced arrhythmia in guinea pig left atrium at 50 uM; assay type: functional, Cavia porcellus, Cardiac atrium
[6] = Activity against alternating current-induced arrhythmia in guinea pig left atrium; assay type: functional, tissue-based; details: Cavia porcellus, Cardiac atrium
Aorta [7] = assay: Inhibition of calcium-induced contraction of potassium ion depolarized guinea pig aortic strips at 100 uM; assay type: functional; details: Cavia porcellus
[8] = Activity against alternating current-induced arrhythmia in guinea pig left atrium at 100 uM; assay type: functional, Cavia porcellus, Cardiac atrium
[9] = Negative chronotropic activity assessed as decrease in atrial rate in isolated guinea pig right atrium at 100 uM relative to control; assay type: functional, Cavia porcellus, Cardiac atrium; design: scale not given: the % may be the effect or the level left
[10] = Negative inotropic activity assessed as decrease in developed tension in isolated guinea pig left atrium at 50 uM relative to control; assay type: functional, Cavia porcellus, Cardiac atrium; design: scale not given: the % may be the effect or the level left
[11] = Activity against alternating current-induced arrhythmia in guinea pig left atrium at 5 uM; assay type: functional, Cavia porcellus, Cardiac atrium
Heart [12] = assay: Intraventricular conduction time in spontaneously beating Langendorff-perfused guinea pig heart at 10 uM; assay type: functional, Cavia porcellus
Heart [13] = assay: Heart rate in spontaneously beating Langendorff-perfused guinea pig heart at 0.1uM; assay type: functional, Cavia porcellus
Heart [14] = assay: Atrioventricular conduction time in spontaneously beating Langendorff-perfused guinea pig heart at 10 nM; assay type: functional, Cavia porcellus
Heart [15] = assay: Intraventricular conduction time in spontaneously beating Langendorff-perfused guinea pig heart at 1 uM; assay type: functional, Cavia porcellus
Heart [16] = assay: Ventricular action potential duration in spontaneously beating Langendorff-perfused guinea pig heart at 1 uM; assay type: functional, Cavia porcellus
Heart [17] = assay: Atrioventricular conduction time in spontaneously beating Langendorff-perfused guinea pig heart at 1 nM; assay type: functional, Cavia porcellus
Heart [18] = assay: Intraventricular conduction time in spontaneously beating Langendorff-perfused guinea pig heart at 10 nM; assay type: functional, Cavia porcellus
Heart [19] = assay: Atrioventricular conduction time in spontaneously beating Langendorff-perfused guinea pig heart at 1 uM; assay type: functional, Cavia porcellus
Heart [20] = assay: Intraventricular conduction time in spontaneously beating Langendorff-perfused guinea pig heart at 0.1 uM; assay type: functional, Cavia porcellus
Heart [21] = assay: Ventricular action potential duration in spontaneously beating Langendorff-perfused guinea pig heart at 0.1 uM; assay type: functional, Cavia porcellus
Heart [22] = assay: Atrioventricular conduction time in spontaneously beating Langendorff-perfused guinea pig heart at 0.1 uM; assay type: functional, Cavia porcellus
Heart [23] = assay: Intraventricular conduction time in spontaneously beating Langendorff-perfused guinea pig heart at 1 nM; assay type: functional, Cavia porcellus
Heart [24] = assay: Heart rate in spontaneously beating Langendorff-perfused guinea pig heart at 1 uM; assay type: functional, Cavia porcellus; design: unit not given here
Heart [25] = assay: Atrioventricular conduction time in spontaneously beating Langendorff-perfused guinea pig heart at 10 uM; assay type: functional, Cavia porcellus
[26] = Negative inotropic activity assessed as decrease in developed tension in isolated guinea pig left atrium at 100 uM relative to control; assay type: functional, Cavia porcellus, Cardiac atrium; design: scale not given: the % may be the effect or the level left
[27] = (§1) Activity against alternating current-induced arrhythmia in guinea pig left atrium at 10 uM; assay type: functional, Cavia porcellus, Cardiac atrium
[28] = Positive chronotropic activity in isolated guinea pig right atrium relative to control; assay type: functional, Cavia porcellus, Cardiac atrium
[29] = Displacement of [3H]batrachotoxin from sodium channel in rat brain; assay type: tissue-based
[30] = Negative chronotropic activity assessed as decrease in atrial rate in isolated guinea pig right atrium at 10 uM relative to control; assay type: functional, Cavia porcellus, Cardiac atrium; design: scale not given: the % may be the effect or the level left
[31] = Negative inotropic activity assessed as decrease in developed tension in isolated guinea pig left atrium at 0.1 uM relative to control; assay type: functional, Cavia porcellus, Cardiac atrium; design: scale not given: the % may be the effect or the level left
[32] = Positive chronotropic activity in isolated guinea pig right atrium at 1 uM relative to control; assay type: functional, Cavia porcellus, Cardiac atrium
Cavia porcellus = species on record: Cavia porcellus; assay: as §1; assay type: functional; details: Cardiac atrium

SMILES: CS(=O)(=O)Nc1ccc(C(=O)NC[C@@H]2CCCN3CCCC[C@H]23)cc1
EC50 [3]: 250 nM
inhibition at 100 µM (Aorta [7]): 1%
Activity [8]: 34%
Activity [9]: 4%
Activity [10]: 92%

SMILES: Cc1cc(NS(C)(=O)=O)cc(C)c1OC[C@@H]1CCCN2CCCC[C@H]12
EC50 [3]: 31 nM
Activity [4]: 83%
inhibition at 100 µM (Aorta [7]): 30%
Activity [9]: 12%
Activity [11]: 60%
EC50 [6]: 1250 nM

SMILES: C=C[C@H]1CN2CC[C@H]1C[C@@H]2[C@@H](O)c1ccnc2ccc(OC)cc12 [QUINIDINE]
Activity (Heart [12]): 39 ms
Activity (Heart [13]): 140
Activity (Heart [14]): 54 ms
EC50 (tissue or blood): 3990 nM
Activity [2]: 86%
Activity (Heart [15]): 35 ms
EC50 [3]: 3380 nM
Activity (Heart [16]): 200 ms
Activity (Heart [17]): 53 ms
Activity (Heart [18]): 27 ms
Activity (Heart [19]): 60 ms
inhibition at 100 µM (Aorta [7]): 30%
Activity [10]: 71%
Activity (Heart [20]): 31 ms
Activity [5]: 69%
Activity (Heart [21]): 182 ms
Activity (Heart [22]): 57 ms
Activity (Heart [23]): 25 ms
Activity (Heart [24]): 123
Activity (Heart [25]): 70 ms
EC50 [6]: 10300 nM

SMILES: Cc1cc(NS(C)(=O)=O)cc(C)c1OC[C@H]1CCCN2CCCC[C@H]12
EC50 [3]: 140 nM
Activity [4]: 64%
inhibition at 100 µM (Aorta [7]): 23%
Activity [8]: 5%
Activity [9]: 34%

SMILES: Cc1cc(C(=O)c2ccccc2)ccc1NC(=O)C[C@@H]1CCCN2CCCC[C@H]12
IC50 [29]: 3700 nM

Further lines, with some results ahead:

EC50 (tissue or blood): 6630 nM
EC50 [3]: 160 nM
SMILES: Cc1cc(C(=O)c2ccccc2)cc(C)c1OC[C@H]1CCCN2CCCC[C@H]12
inhibition at 50 µM (Aorta [1]): 38%
Activity [2]: 75%
Activity [4]: 64%
Activity [5]: 104%
EC50 [6]: 19900 nM

EC50 [3]: 460 nM
SMILES: Nc1ccc(C(=O)NC[C@@H]2CCCN3CCCC[C@H]23)cc1
Activity [26]: 95%
Activity [27]: 28%
inhibition at 100 µM (Aorta [7]): 3%
Activity [28]: 13%

EC50 [3]: 14 nM
SMILES: Cc1cccc(C)c1OC[C@H]1CCCN2CCCC[C@H]12
Activity [27]: 35%
Activity [30]: 13%
Activity [31]: 68%
inhibition at 100 µM (Aorta [7]): 21%

EC50 (tissue or blood): 23700 nM
EC50 [3]: 8390 nM
SMILES: Cc1cc([N+](=O)[O-])cc(C)c1OC[C@@H]1CCCN2CCCC[C@H]12
Activity [26]: 91%
Activity [2]: 66%
inhibition at 100 µM (Aorta [7]): 16%
Activity [5]: 27%

EC50 [3]: 620 nM
SMILES: Cc1cccc(C)c1NC(=O)C[C@@H]1CCCN2CCCC[C@H]12
inhibition at 100 µM (Aorta [7]): 5%
Activity [10]: 95%
Activity [5]: 78%
EC50 [6]: 5710 nM
Activity [32]: 8%

EC50 [3]: 310 nM
SMILES: Cc1cc(NS(C)(=O)=O)cc(C)c1NC(=O)C[C@@H]1CCCN2CCCC[C@H]12
Activity [26]: 86%
Activity (Cavia porcellus): inactive
inhibition at 100 µM (Aorta [7]): 24%
Activity [28]: 8%
